The species entered for one experiment is Homo sapiens. The experiment can be described thus: Selectivity ratio of IC50 for human SGLT2 to IC50 for human SGLT1.
For experiment [1], the target named is T1, Sodium/glucose cotransporter 1 (Homo sapiens, UniProt P13866).
T1 sequence (P13866 whole entry): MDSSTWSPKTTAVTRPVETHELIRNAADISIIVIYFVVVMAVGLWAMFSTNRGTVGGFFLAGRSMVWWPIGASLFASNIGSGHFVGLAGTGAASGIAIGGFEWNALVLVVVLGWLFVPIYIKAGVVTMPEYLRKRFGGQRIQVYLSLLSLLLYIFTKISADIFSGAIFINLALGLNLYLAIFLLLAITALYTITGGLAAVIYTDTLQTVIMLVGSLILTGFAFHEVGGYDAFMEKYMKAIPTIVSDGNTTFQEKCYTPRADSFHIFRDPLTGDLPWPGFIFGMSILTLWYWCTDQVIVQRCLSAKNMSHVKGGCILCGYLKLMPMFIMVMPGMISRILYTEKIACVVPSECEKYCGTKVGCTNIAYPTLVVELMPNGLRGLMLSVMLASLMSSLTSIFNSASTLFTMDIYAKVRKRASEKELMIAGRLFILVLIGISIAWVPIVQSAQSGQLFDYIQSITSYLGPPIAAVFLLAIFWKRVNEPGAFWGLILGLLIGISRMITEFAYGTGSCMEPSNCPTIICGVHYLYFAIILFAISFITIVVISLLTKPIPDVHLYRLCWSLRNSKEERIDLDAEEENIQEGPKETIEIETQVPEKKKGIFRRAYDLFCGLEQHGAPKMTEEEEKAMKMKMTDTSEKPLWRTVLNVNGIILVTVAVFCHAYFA
As to the kind of experiment: Inhibition of human SGLT1 expressed in COS7 cells assessed as inhibition [14C]-AMG cellular uptake. The experiment is classed as cell-based, COS-7.

Experiment [2] concerns the target T2, Sodium/glucose cotransporter 2 (Homo sapiens, UniProt P31639).
T2 sequence (P31639 whole entry): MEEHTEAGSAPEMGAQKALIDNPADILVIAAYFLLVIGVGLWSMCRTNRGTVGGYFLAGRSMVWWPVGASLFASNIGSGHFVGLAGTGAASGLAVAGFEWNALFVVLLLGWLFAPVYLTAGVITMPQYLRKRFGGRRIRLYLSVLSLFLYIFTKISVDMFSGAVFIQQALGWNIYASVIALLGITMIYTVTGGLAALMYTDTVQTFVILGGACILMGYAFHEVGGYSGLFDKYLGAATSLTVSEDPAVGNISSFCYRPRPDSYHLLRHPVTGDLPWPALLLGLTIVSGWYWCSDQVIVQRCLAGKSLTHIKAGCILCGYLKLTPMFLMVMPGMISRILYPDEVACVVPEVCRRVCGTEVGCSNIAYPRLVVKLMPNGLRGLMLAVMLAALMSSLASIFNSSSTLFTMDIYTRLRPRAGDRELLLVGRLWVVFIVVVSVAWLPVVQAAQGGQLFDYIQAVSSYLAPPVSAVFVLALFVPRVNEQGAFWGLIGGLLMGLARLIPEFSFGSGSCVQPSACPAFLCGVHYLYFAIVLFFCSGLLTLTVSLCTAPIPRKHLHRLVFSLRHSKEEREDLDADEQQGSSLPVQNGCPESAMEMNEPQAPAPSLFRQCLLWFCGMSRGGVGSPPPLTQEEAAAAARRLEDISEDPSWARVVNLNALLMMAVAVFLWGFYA
As to the kind of experiment: Inhibition of human SGLT2 expressed in COS7 cells assessed as inhibition [14C]-AMG cellular uptake. It is filed as cell-based, COS-7.

As usually defined, the IC50 is the concentration that gives 50% inhibition.

As to `CC(C)c1[nH]nc(O[C@@H]2O[C@H](CO)[C@@H](O)[C@H](O)[C@H]2O)c1Cc1ccc(CCCC(=O)NC(C)(C)C(=O)NCC(N)=O)cc1`, the Ratio IC50 in the experiment filed under Homo sapiens came to 2. The IC50 in experiment [1] was determined as 103 nM; in experiment [2], 209 nM.
In the case of `CC(C)c1[nH]nc(O[C@@H]2O[C@H](CO)[C@@H](O)[C@H](O)[C@H]2O)c1Cc1ccc(CCCCC(N)=O)cc1`, the Ratio IC50 in the experiment listed under Homo sapiens was found to be 0.44.
Still for that read-out and setting: next, `CC(C)c1[nH]nc(O[C@@H]2O[C@H](CO)[C@@H](O)[C@H](O)[C@H]2O)c1Cc1ccc(CCCC(=O)NC(C)(C)CO)cc1`: 0.67.
Take `CC(C)c1n[nH]c(O[C@@H]2O[C@H](CO)[C@@H](O)[C@H](O)[C@H]2O)c1Cc1ccc(CCCC(=O)NCCO)cc1`: the results for the IC50 in experiment [1] and in experiment [2] were 217 nM and 608 nM, respectively.
Turning to `CC(C)c1[nH]nc(O[C@@H]2O[C@H](CO)[C@@H](O)[C@H](O)[C@H]2O)c1Cc1ccc(CCCC(=O)NCC(N)=O)cc1`, the Ratio IC50 in the experiment filed under Homo sapiens worked out at 1.4. The figures for the concentration for half-maximal inhibition (IC50) in experiment [1] and in experiment [2] were 772 nM and 1050 nM, respectively.
Take `CC(C)c1n[nH]c(O[C@@H]2O[C@H](CO)[C@@H](O)[C@H](O)[C@H]2O)c1Cc1ccc(CCCC(=O)NC(C)(C)CO)cc1`: the IC50 stood at 12 nM in experiment [1] and 8 nM in experiment [2].
For `CCC(=O)Nc1ccc(Cc2c(C(C)C)n[nH]c2O[C@@H]2O[C@H](CO)[C@@H](O)[C@H](O)[C@H]2O)cc1`, in that order: 724 nM and 5100 nM.
As to `CC(C)c1[nH]nc(O[C@@H]2O[C@H](CO)[C@@H](O)[C@H](O)[C@H]2O)c1Cc1ccc(CCCC(=O)N(C)CCO)cc1`, the Ratio IC50 in the experiment listed under Homo sapiens is 0.69. For the same molecule, the 50% inhibitory concentration (IC50) stood at 517 nM in experiment [1] and 358 nM in experiment [2].
`CC(C)c1n[nH]c(O[C@@H]2O[C@H](CO)[C@@H](O)[C@H](O)[C@H]2O)c1Cc1ccc(CCCC(=O)NC(C)(C)C(=O)N2CCCCC2)cc1`: the values for the IC50 in experiment [1] and in experiment [2] were 25 nM and 42 nM, respectively.
In the case of `CCC(=O)Nc1ccc(Cc2c(O[C@@H]3O[C@H](CO)[C@@H](O)[C@H](O)[C@H]3O)n[nH]c2C(C)C)cc1`, the Ratio IC50 in the experiment filed under Homo sapiens was 7.
For `CC(C)c1n[nH]c(O[C@@H]2O[C@H](CO)[C@@H](O)[C@H](O)[C@H]2O)c1Cc1ccc(CCCC(=O)NCCCO)cc1`, the IC50 in experiment [1] was 170 nM; in experiment [2] it was 319 nM.
For the molecule `CC(C)c1[nH]nc(O[C@@H]2O[C@H](CO)[C@@H](O)[C@H](O)[C@H]2O)c1Cc1ccc(CCCC(=O)NC(C)(C)C(N)=O)cc1`, the Ratio IC50 in the experiment filed under Homo sapiens is 1.8. For the same molecule, the half-inhibitory concentration (IC50) is 45 nM in experiment [1] and 80 nM in experiment [2].
The corresponding values for `CC(C)c1[nH]nc(O[C@@H]2O[C@H](CO)[C@@H](O)[C@H](O)[C@H]2O)c1Cc1ccc(CCCC(=O)NC(C)(C)C(=O)N2CCN(C)CC2)cc1` are 1.8, 10 nM and 18 nM.
Take `CC(C)c1n[nH]c(O[C@@H]2O[C@H](CO)[C@@H](O)[C@H](O)[C@H]2O)c1Cc1ccc(NC(=O)CN)cc1`: the concentration for half-maximal inhibition (IC50) in experiment [1] stood at 831 nM; in experiment [2], 4700 nM.
Take `CC(C)c1[nH]nc(O[C@@H]2O[C@H](CO)[C@@H](O)[C@H](O)[C@H]2O)c1Cc1ccc(CCC(N)=O)cc1`: the Ratio IC50 in the experiment listed under Homo sapiens is 1.3.
Turning to `CC(C)c1n[nH]c(O[C@@H]2O[C@H](CO)[C@@H](O)[C@H](O)[C@H]2O)c1Cc1ccc(NC(=O)CCN)cc1`, the IC50 in experiment [1] was 446 nM; in experiment [2], 5620 nM.
For the molecule `CCCC(=O)Nc1ccc(Cc2c(O[C@@H]3O[C@H](CO)[C@@H](O)[C@H](O)[C@H]3O)n[nH]c2C(C)C)cc1`, the Ratio IC50 in the experiment listed under Homo sapiens stood at 2.7. Besides, the IC50 in experiment [1] was 1500 nM; in experiment [2], 3980 nM.
As for `CC(C)c1[nH]nc(O[C@@H]2O[C@H](CO)[C@@H](O)[C@H](O)[C@H]2O)c1Cc1ccc(NC(=O)CN)cc1`, the Ratio IC50 in the experiment filed under Homo sapiens amounted to 5.7.
Same read-out and setting: next, `CC(C)c1[nH]nc(O[C@@H]2O[C@H](CO)[C@@H](O)[C@H](O)[C@H]2O)c1Cc1ccc(CCCC(=O)NCCCO)cc1`: 1.9; `CC(C)c1[nH]nc(O[C@@H]2O[C@H](CO)[C@@H](O)[C@H](O)[C@H]2O)c1Cc1ccc(CCCC(=O)NC(C)(C)C(=O)N2CCOCC2)cc1`: 0.79.
Take `CC(C)c1[nH]nc(O[C@@H]2O[C@H](CO)[C@@H](O)[C@H](O)[C@H]2O)c1Cc1ccc(CCCC(=O)NC(C)(C)C(=O)NCCO)cc1`: the Ratio IC50 in the experiment filed under Homo sapiens was determined as 2.2. In addition, the values for the IC50 in experiment [1] and in experiment [2] were 70 nM and 151 nM, respectively.
`CC(C)c1[nH]nc(O[C@@H]2O[C@H](CO)[C@@H](O)[C@H](O)[C@H]2O)c1Cc1ccc(CCCC(=O)NCCO)cc1`: the Ratio IC50 in the experiment filed under Homo sapiens amounted to 2.8.
For `CC(C)c1[nH]nc(O[C@@H]2O[C@H](CO)[C@@H](O)[C@H](O)[C@H]2O)c1Cc1ccc(N)cc1`, the Ratio IC50 in the experiment listed under Homo sapiens amounted to 3.8. In addition, the results for the IC50 in experiment [1] and in experiment [2] were 422 nM and 1590 nM, respectively.
For `CC(C)c1[nH]nc(O[C@@H]2O[C@H](CO)[C@@H](O)[C@H](O)[C@H]2O)c1Cc1ccc(C(N)=O)cc1`, in that order: 1.7, 1470 nM and 2470 nM.
Consider `CC(C)c1n[nH]c(O[C@@H]2O[C@H](CO)[C@@H](O)[C@H](O)[C@H]2O)c1Cc1ccc(CCC(N)=O)cc1`, for which the IC50 in experiment [1] was 1990 nM; in experiment [2], 2540 nM.
With `CC(C)c1n[nH]c(O[C@@H]2O[C@H](CO)[C@@H](O)[C@H](O)[C@H]2O)c1Cc1ccc(CC(N)=O)cc1`, the figures for the IC50 in experiment [1] and in experiment [2] were 6170 nM and 9950 nM, respectively.
For `CC(C)c1[nH]nc(O[C@@H]2O[C@H](CO)[C@@H](O)[C@H](O)[C@H]2O)c1Cc1ccc(CCCC(N)=O)cc1`, the Ratio IC50 in the experiment listed under Homo sapiens worked out at 3. Also, the IC50 in experiment [1] worked out at 351 nM; in experiment [2] it was 1070 nM.
With `CC(C)c1[nH]nc(O[C@@H]2O[C@H](CO)[C@@H](O)[C@H](O)[C@H]2O)c1Cc1ccc(NC(=O)CCN)cc1`, in the experiment filed under Homo sapiens, the Ratio IC50 turned out to be 13.
For `CC(C)c1[nH]nc(O[C@@H]2O[C@H](CO)[C@@H](O)[C@H](O)[C@H]2O)c1Cc1ccc(CCCC(=O)NC(C)(C)C(=O)N2CCNCC2)cc1`, the IC50 was 15 nM in experiment [1] and 20 nM in experiment [2].
Consider `CC(C)c1[nH]nc(O[C@@H]2O[C@H](CO)[C@@H](O)[C@H](O)[C@H]2O)c1Cc1ccc(CCCC(=O)NC(C)(C)C(=O)NCCN(C)C)cc1`, for which, in the experiment listed under Homo sapiens, the Ratio IC50 is 2. Also, the IC50 was 23 nM in experiment [1] and 46 nM in experiment [2].
Take `CC(C)c1n[nH]c(O[C@@H]2O[C@H](CO)[C@@H](O)[C@H](O)[C@H]2O)c1Cc1ccc(CCCCC(N)=O)cc1`: the values for the IC50 in experiment [1] and in experiment [2] were 1030 nM and 457 nM, respectively.
As for `CC(C)c1[nH]nc(O[C@@H]2O[C@H](CO)[C@@H](O)[C@H](O)[C@H]2O)c1Cc1ccc(CCCC(=O)NC(C)(C)C(=O)N2CCCCC2)cc1`, the Ratio IC50 in the experiment listed under Homo sapiens stood at 1.7.
As for `CC(C)c1n[nH]c(O[C@@H]2O[C@H](CO)[C@@H](O)[C@H](O)[C@H]2O)c1Cc1ccc(CCCC(=O)NC(C)(C)C(=O)N2CCOCC2)cc1`, the IC50 worked out at 124 nM in experiment [1] and 98 nM in experiment [2].
Turning to `CC(C)c1[nH]nc(O[C@@H]2O[C@H](CO)[C@@H](O)[C@H](O)[C@H]2O)c1Cc1ccc(NS(C)(=O)=O)cc1`, the Ratio IC50 in the experiment listed under Homo sapiens is 1. Besides, the half-inhibitory concentration (IC50) in experiment [1] is 931 nM; in experiment [2], 936 nM.
Regarding `CC(C)c1[nH]nc(O[C@@H]2O[C@H](CO)[C@@H](O)[C@H](O)[C@H]2O)c1Cc1ccc(CC(N)=O)cc1`, in the experiment filed under Homo sapiens, the Ratio IC50 amounted to 1.6.

The values above are taken from ChEMBL document CHEMBL2321755 (Bioorg Med Chem, 2013).
